According to PubChem BioAssay (NCI):
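Grown in 96-well plates, cells were treated for 48 hours with each compound at five concentrations. Insufficient inhibition: endpoint recorded as highest concentration tested. The concentration for 50% growth inhibition is given as GI50. TGI denotes the concentration required for complete inhibition of growth.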

Assays:
Assay in all cases: NCI tumour cell line growth inhibition, 48 h
SF-539 CNS = tested on: SF-539 CNS
T-47D breast = tested on: T-47D breast
A498 renal = tested on: A498 renal
MOLT-4 leukemia = tested on: MOLT-4 leukemia
NCI-H522 lung = tested on: NCI-H522 lung
MDA-MB-231 breast = tested on: MDA-MB-231 breast
SNB-75 CNS = tested on: SNB-75 CNS
MCF7 breast = tested on: MCF7 breast
U251 CNS = tested on: U251 CNS
OVCAR-4 ovarian = tested on: OVCAR-4 ovarian
SF-268 CNS = tested on: SF-268 CNS
A549 NSCLC = tested on: A549 NSCLC
NCI-H226 lung = tested on: NCI-H226 lung
UACC-257 melanoma = tested on: UACC-257 melanoma
HT29 colon = tested on: HT29 colon
SF-295 CNS = tested on: SF-295 CNS
RPMI-8226 leukemia = tested on: RPMI-8226 leukemia
OVCAR-5 ovarian = tested on: OVCAR-5 ovarian
HCC-2998 colon = tested on: HCC-2998 colon
SW-620 colon = tested on: SW-620 colon
OVCAR-3 ovarian = tested on: OVCAR-3 ovarian
SK-MEL-28 melanoma = tested on: SK-MEL-28 melanoma
SNB-19 CNS = tested on: SNB-19 CNS
NCI/ADR-RES ovarian = tested on: NCI/ADR-RES ovarian
UO-31 renal = tested on: UO-31 renal
PC-3 prostate = tested on: PC-3 prostate
DU-145 prostate = tested on: DU-145 prostate
SK-OV-3 ovarian = tested on: SK-OV-3 ovarian
BT-549 breast = tested on: BT-549 breast
UACC-62 melanoma = tested on: UACC-62 melanoma
K-562 leukemia = tested on: K-562 leukemia
MDA-MB-435 = tested on: MDA-MB-435
786-0 renal = tested on: 786-0 renal
RXF 393 renal = tested on: RXF 393 renal
IGROV1 ovarian = tested on: IGROV1 ovarian
NCI-H23 lung = tested on: NCI-H23 lung
HOP-62 NSCLC = tested on: HOP-62 NSCLC
TK-10 renal = tested on: TK-10 renal
OVCAR-8 ovarian = tested on: OVCAR-8 ovarian
HCT-116 colon = tested on: HCT-116 colon
HS 578T breast = tested on: HS 578T breast
SK-MEL-2 melanoma = tested on: SK-MEL-2 melanoma
LOX IMVI melanoma = tested on: LOX IMVI melanoma
ACHN renal = tested on: ACHN renal
SK-MEL-5 melanoma = tested on: SK-MEL-5 melanoma
HCT-15 colon = tested on: HCT-15 colon
NCI-H460 lung = tested on: NCI-H460 lung
CAKI-1 renal = tested on: CAKI-1 renal
M14 melanoma = tested on: M14 melanoma
COLO 205 colon = tested on: COLO 205 colon
HL-60(TB) leukemia = tested on: HL-60(TB) leukemia
MALME-3M melanoma = tested on: MALME-3M melanoma
SR leukemia = tested on: SR leukemia
SN12C renal = tested on: SN12C renal
CCRF-CEM leukemia = tested on: CCRF-CEM leukemia
KM12 colon = tested on: KM12 colon
HOP-92 NSCLC = tested on: HOP-92 NSCLC

## Cc1nn2c(-c3nc4cc(Cl)c(Cl)cc4[nH]3)c(-c3ccc(F)cc3)nc2s1
SF-539 CNS
  GI50: 2530 nM
  TGI: 11100 nM
T-47D breast
  GI50: 1950 nM
  TGI: 14500 nM
A498 renal
  GI50: 2090 nM
  TGI: 8370 nM
MOLT-4 leukemia
  GI50: > 100000 nM
  TGI: > 100000 nM
NCI-H522 lung
  GI50: 6350 nM
  TGI: 55800 nM
MDA-MB-231 breast
  GI50: 1250 nM
  TGI: 3740 nM
SNB-75 CNS
  GI50: 1560 nM
  TGI: 3710 nM
MCF7 breast
  GI50: 13600 nM
  TGI: > 100000 nM
U251 CNS
  GI50: 2560 nM
  TGI: 10500 nM
OVCAR-4 ovarian
  GI50: 257 nM
  TGI: 781 nM
SF-268 CNS
  GI50: 3150 nM
  TGI: > 52800 nM
A549 NSCLC
  GI50: 1920 nM
  TGI: > 42300 nM
NCI-H226 lung
  GI50: 4010 nM
  TGI: 31100 nM
UACC-257 melanoma
  GI50: 8160 nM
  TGI: > 100000 nM
HT29 colon
  GI50: 1910 nM
  TGI: > 100000 nM
SF-295 CNS
  GI50: 4920 nM
  TGI: > 42800 nM
RPMI-8226 leukemia
  GI50: 2440 nM
  TGI: > 100000 nM
OVCAR-5 ovarian
  GI50: 8980 nM
  TGI: > 100000 nM
HCC-2998 colon
  GI50: > 100000 nM
  TGI: > 100000 nM
SW-620 colon
  GI50: 10200 nM
  TGI: > 100000 nM
OVCAR-3 ovarian
  GI50: 3260 nM
  TGI: 11100 nM
SK-MEL-28 melanoma
  GI50: 7400 nM
  TGI: > 100000 nM
SNB-19 CNS
  GI50: 5180 nM
  TGI: > 76800 nM
NCI/ADR-RES ovarian
  GI50: 2700 nM
  TGI: > 30300 nM
UO-31 renal
  GI50: 1640 nM
  TGI: 3930 nM
PC-3 prostate
  GI50: 9290 nM
  TGI: > 100000 nM
DU-145 prostate
  GI50: 5190 nM
  TGI: > 100000 nM
SK-OV-3 ovarian
  GI50: 1980 nM
  TGI: 4460 nM
BT-549 breast
  GI50: 8570 nM
  TGI: > 100000 nM
UACC-62 melanoma
  GI50: 3490 nM
  TGI: > 46300 nM
K-562 leukemia
  GI50: > 100000 nM
  TGI: > 100000 nM
MDA-MB-435
  GI50: 4650 nM
  TGI: > 100000 nM
786-0 renal
  GI50: 1750 nM
  TGI: 3330 nM
RXF 393 renal
  GI50: 1840 nM
  TGI: 5410 nM
IGROV1 ovarian
  GI50: 5420 nM
  TGI: > 50600 nM
NCI-H23 lung
  GI50: 21700 nM
  TGI: > 61400 nM
HOP-62 NSCLC
  GI50: 1930 nM
  TGI: 7260 nM
TK-10 renal
  GI50: 2190 nM
  TGI: 4690 nM
OVCAR-8 ovarian
  GI50: 2110 nM
  TGI: 15000 nM
HCT-116 colon
  GI50: 1300 nM
  TGI: > 26000 nM
HS 578T breast
  GI50: 2780 nM
  TGI: > 29600 nM
SK-MEL-2 melanoma
  GI50: 14200 nM
  TGI: 94500 nM
LOX IMVI melanoma
  GI50: 2790 nM
  TGI: > 100000 nM
ACHN renal
  GI50: 1700 nM
  TGI: 5250 nM
SK-MEL-5 melanoma
  GI50: 5860 nM
  TGI: > 100000 nM
HCT-15 colon
  GI50: > 100000 nM
  TGI: > 100000 nM
NCI-H460 lung
  GI50: 1750 nM
  TGI: > 33800 nM
CAKI-1 renal
  GI50: 7090 nM
  TGI: > 59400 nM
M14 melanoma
  GI50: 5940 nM
  TGI: > 100000 nM
COLO 205 colon
  GI50: > 70200 nM
  TGI: > 100000 nM
HL-60(TB) leukemia
  GI50: > 100000 nM
  TGI: > 100000 nM
MALME-3M melanoma
  GI50: 3230 nM
  TGI: 15000 nM
SR leukemia
  GI50: 42900 nM
  TGI: > 100000 nM
SN12C renal
  GI50: 7920 nM
  TGI: > 100000 nM
CCRF-CEM leukemia
  GI50: > 100000 nM
  TGI: > 100000 nM

## CN(C)CCS(=O)(=O)Nc1cc(-c2ccc3ncnc(Nc4ccc(F)c(Cl)c4)c3c2)cnc1Cl
T-47D breast
  GI50: 94.1 nM
  TGI: 635 nM
A498 renal
  GI50: 336 nM
  TGI: 1170 nM
MOLT-4 leukemia
  GI50: 257 nM
  TGI: 690 nM
MDA-MB-231 breast
  GI50: 370 nM
  TGI: 1800 nM
SNB-75 CNS
  GI50: 282 nM
  TGI: > 100000 nM
MCF7 breast
  GI50: 292 nM
  TGI: > 100000 nM
U251 CNS
  GI50: 850 nM
  TGI: 2910 nM
OVCAR-4 ovarian
  GI50: 1290 nM
  TGI: > 100000 nM
SF-268 CNS
  GI50: 549 nM
  TGI: > 100000 nM
A549 NSCLC
  GI50: 803 nM
  TGI: 3260 nM
NCI-H226 lung
  GI50: 2110 nM
  TGI: > 100000 nM
UACC-257 melanoma
  GI50: 775 nM
  TGI: 6810 nM
SF-295 CNS
  GI50: 515 nM
  TGI: > 100000 nM
RPMI-8226 leukemia
  GI50: 1040 nM
  TGI: 4520 nM
OVCAR-5 ovarian
  GI50: 268 nM
  TGI: > 22800 nM
HCC-2998 colon
  GI50: 1050 nM
  TGI: 3040 nM
SW-620 colon
  GI50: 1200 nM
  TGI: > 38000 nM
OVCAR-3 ovarian
  GI50: 220 nM
  TGI: 1200 nM
SNB-19 CNS
  GI50: 1910 nM
  TGI: > 100000 nM
NCI/ADR-RES ovarian
  GI50: 3320 nM
  TGI: > 100000 nM
UO-31 renal
  GI50: 259 nM
  TGI: 1690 nM
PC-3 prostate
  GI50: 536 nM
  TGI: > 100000 nM
DU-145 prostate
  GI50: 566 nM
  TGI: > 37300 nM
SK-OV-3 ovarian
  GI50: 261 nM
  TGI: 1640 nM
BT-549 breast
  GI50: 240 nM
  TGI: 1380 nM
UACC-62 melanoma
  GI50: 938 nM
  TGI: 3400 nM
K-562 leukemia
  GI50: 2950 nM
  TGI: > 54500 nM
MDA-MB-435
  GI50: 713 nM
  TGI: 3040 nM
786-0 renal
  GI50: 1340 nM
  TGI: > 100000 nM
RXF 393 renal
  GI50: 256 nM
  TGI: 1220 nM
IGROV1 ovarian
  GI50: 85.9 nM
  TGI: 380 nM
NCI-H23 lung
  GI50: 577 nM
  TGI: > 100000 nM
HOP-62 NSCLC
  GI50: 473 nM
  TGI: > 100000 nM
TK-10 renal
  GI50: 188 nM
  TGI: 1310 nM
OVCAR-8 ovarian
  GI50: 1770 nM
  TGI: > 51700 nM
HCT-116 colon
  GI50: 829 nM
  TGI: 6430 nM
HS 578T breast
  GI50: 320 nM
  TGI: 10800 nM
KM12 colon
  GI50: 1460 nM
  TGI: 4250 nM
SK-MEL-2 melanoma
  GI50: 715 nM
  TGI: 2740 nM
ACHN renal
  GI50: 392 nM
  TGI: > 100000 nM
SK-MEL-5 melanoma
  GI50: 208 nM
  TGI: 622 nM
HCT-15 colon
  GI50: 1110 nM
  TGI: 4360 nM
NCI-H460 lung
  GI50: 1040 nM
  TGI: > 100000 nM
M14 melanoma
  GI50: 655 nM
  TGI: > 35400 nM
COLO 205 colon
  GI50: 748 nM
  TGI: 2220 nM
HL-60(TB) leukemia
  GI50: 1330 nM
  TGI: 9150 nM
HOP-92 NSCLC
  GI50: 75.7 nM
  TGI: 513 nM
MALME-3M melanoma
  GI50: 114 nM
  TGI: 666 nM
SR leukemia
  GI50: 809 nM
SN12C renal
  GI50: 624 nM
  TGI: > 100000 nM
CCRF-CEM leukemia
  GI50: 322 nM
  TGI: > 37000 nM
